Reference: PMC12716216, “Characterization of Ligand Binding in Human Serum Albumin from Atomistic Energy Transfer Simulations” (Small Methods, 2025)
“And” between values parts separate entries of the source, which are not always exact repeats. Equal values may be shown once. Read-outs that look alike come from different tables or passages of the source.

How the values were obtained:
[1] = target: human serum albumin (HSA) (Homo sapiens, UniProt P02768); assay: Fluorescence ligand titration of HSA: quenching of intrinsic protein (Trp214) fluorescence, fitted Kd, n and FRET efficiency
Experimental: For absorbance and fluorescence, solutions of the ligand, protein, and protein‐ligand complexes at different concentrations were prepared using PBS 1x buffer. […] The fluorescence intensities of protein‐ligand complexes were corrected for inner‐filter effects based on the absorbance of the ligands at the excitation and emission wavelengths ( IDA,cor=IDA10^(Absex+Absem)/2 ).^[ [19] ^] The fluorescence of the ligands in the absence of HSA was also recorded at 100 µM concentration. Spectral overlaps used to compute FRET rates were computed from the measured area‐normalized D emission and A absorption spectra and are reported in the Supporting Information. Protein and ligand solutions were freshly prepared, and titrations were carried out in the cuvette right before the measurement. The average of three measurements for the complexes at each ligand concentration was used to plot the spectra and compute FRET efficiencies following this formula: (10) E=1−IDA/ID where IDA is the intensity of the complex and ID the intensity of HSA in the absence of ligand.
Efficiencies were corrected based on the percentage of protein‐ligand complex formed in each solution, based on the measured Kd values, then final efficiencies were averaged over the three concentrations.

HSA = details: cited from earlier work
[2] = Kd, excitation 280 nm, IFE-corrected
[3] = Kd, excitation 280 nm, no correction
[4] = Kd, excitation 295 nm, no correction
[5] = dissociation binding constant Kd, 5 µM HSA, PBS 1x, 25 °C, 295 nm excitation, IFE-corrected (carprofen: 280 nm)
[6] = 5 µM HSA, PBS 1x, 295 nm excitation, IFE-corrected (carprofen: 280 nm)
[7] = corrected by fraction of ligand-bound protein, 295 nm excitation, IFE-corrected (carprofen: 280 nm)
[8] = excitation 280 nm, IFE-corrected
[9] = excitation 280 nm, no correction
[10] = excitation 295 nm, IFE-corrected
[11] = excitation 295 nm, no correction

Sequence of human serum albumin (HSA) (P02768 25-609): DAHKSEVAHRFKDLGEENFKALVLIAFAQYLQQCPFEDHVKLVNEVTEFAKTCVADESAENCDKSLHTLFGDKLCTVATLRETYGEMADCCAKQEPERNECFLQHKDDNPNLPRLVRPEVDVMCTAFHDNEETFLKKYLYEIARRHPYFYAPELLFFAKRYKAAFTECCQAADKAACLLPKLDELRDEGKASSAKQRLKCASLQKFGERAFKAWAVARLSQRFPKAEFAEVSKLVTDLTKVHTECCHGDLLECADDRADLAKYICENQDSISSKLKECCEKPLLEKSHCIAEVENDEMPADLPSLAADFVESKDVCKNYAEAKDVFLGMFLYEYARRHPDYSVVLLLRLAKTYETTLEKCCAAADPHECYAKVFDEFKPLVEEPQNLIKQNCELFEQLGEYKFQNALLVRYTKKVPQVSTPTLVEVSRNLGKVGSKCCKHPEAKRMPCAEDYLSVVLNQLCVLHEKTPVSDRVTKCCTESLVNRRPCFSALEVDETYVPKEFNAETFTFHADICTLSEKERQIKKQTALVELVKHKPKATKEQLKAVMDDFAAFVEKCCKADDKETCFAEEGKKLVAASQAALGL

SMILES	Kd [1, 2]	Kd [1, 3]	Kd [1, 4]	Kd [1, 5]	solute binding parameter n (Hill coefficient) [1, 6]	experimental FRET efficiency E (Eexp) [1, 7]	Eexp [1, 8]	Eexp [1, 9]	Eexp [1, 10]	Eexp [1, 11]	measured FRET efficiency ([1]; from fluorescence data)	also measured
Oc1cccc2ccccc12 [1‐naphthol]	128 µM	104 µM	105 µM	137 µM	–	–	–	–	–	–	–	Eexp [1]: 0.83± 0.01 and 0.46± 0.05 and 0.79± 0.03 and 0.54± 0.03; experimental FRET efficiency E (Eexp) [1]: 0.46± 0.05 and 0.46; measured FRET efficiency [1]: 46%; solute binding parameter n (Hill coefficient) [1]: 0.73
Oc1ccc2ccccc2c1 [2‐naphthol]	64.5 µM	77 µM	6.9 µM	6.6 µM	0.71	0.80	0.71± 0.02	0.87± 0.03	0.80 ± 0.03	0.82± 0.03	80%	experimental FRET efficiency E (Eexp) ([1]; corrected by fraction of ligand-bound protein, 295 nm excitation, IFE-corrected (carprofen: 280 nm), listed as 2-Naphthol): 0.80 ± 0.03
C[C@H](C(=O)O)c1ccc2c(c1)[nH]c1ccc(Cl)cc12 [(S)‐carprofen]	–	3 µM	2.8 µM	1.8 µM	0.48	0.81	0.81 ± 0.03	0.89± 0.02	0.42± 0.04	0.71± 0.03	81%	experimental FRET efficiency E (Eexp) ([1]; corrected by fraction of ligand-bound protein, 295 nm excitation, IFE-corrected (carprofen: 280 nm), listed as Carprofen): 0.81 ± 0.03; Kd (HSA; read-out: Kd previous reports): 0.2 to 0.9 µM
O=C(O)c1c2ccccc2nc2ccccc12 [ACA, 9‐acridinecarboxylic acid]	17.5 µM	20.9 µM	18.3 µM	15.5 µM	0.67	0.63	0.64± 0.02	0.75± 0.02	0.63 ± 0.02	0.72± 0.02	63%	–
NCCNc1cccc2ccccc12 [NNE, N‐(1‐naphthyl)ethylenediamine]	3.9 µM	5.6 µM	5 µM	3.5 µM	0.33	0.55	0.45± 0.01	0.57± 0.03	0.55 ± 0.02	0.67± 0.03	55%	experimental FRET efficiency E (Eexp) ([1]; corrected by fraction of ligand-bound protein, 295 nm excitation, IFE-corrected (carprofen: 280 nm), listed as N-(1-Naphthyl)ethylenediamine): 0.55 ± 0.02
O=C(O)COc1cccc2cccnc12 [QAA, (quinoline‐8‐yloxy)‐acetic acid]	74.5 µM	75.9 µM	54.8 µM	48 µM	0.76	0.60	0.68± 0.01	0.80± 0.01	0.60 ± 0.01	0.76± 0.01	60%	Kd ([1]; Kd, excitation 295 nm, IFE-corrected): 48.1 µM; experimental FRET efficiency E (Eexp) ([1]; corrected by fraction of ligand-bound protein, 295 nm excitation, IFE-corrected (carprofen: 280 nm), listed as (Quinolin-8-yloxy)-acetic acid): 0.60 ± 0.01
COc1ccc2c(c1)c(CC(=O)O)c(C)n2C(=O)c1ccc(Cl)cc1 [indomethacin]	–	–	–	–	–	–	–	–	–	–	–	Kd (HSA; read-out: Kd previously reported value): 6.1 µM
O=C(O)c1c2ccccc2nc2ccccc12 [protonated ACA, 9-Acridinecarboxylic acid (protonated)]	–	–	–	–	–	0.63 ± 0.02	–	–	–	–	–	–
